Experimental data published in PMC6005341, “Identification of “sarsasapogenin-aglyconed” timosaponins as novel Aβ-lowering modulators of amyloid precursor protein processing” (Chemical Science, 2016).

System: γ-secretase-mediated cleavage of Notch1
Assay: Notch cleavage by γ-secretase in N2A-APPswe cells transfected with NotchΔE (immunoblot)
Assay type: cell-based
Settings: 18 h
Procedure: rabbit antibody (Millipore). The immunoreactivities were detected using enhanced chemiluminescence reagents (GE Health care).
For examination of notch cleavage by γ-secretase, N2A-APPswe cells were transfected with myc-tagged NotchΔE construct (pSC2 EMV-6MT, provided by Prof. Raphael Kopan, Washington University, St. Louis, MO) using Fugene HD (Roche). Cells were then treated with timosaponins for 18 h and the expression of NotchΔE and NICD were examined by immunoblot analysis using myc-tagged antibodies.
Aβ ELISA: Aβ concentrations in conditioned medium were assayed using ELISA kits for human Aβ40, human Aβ42 (ultrasensitive) (Invitrogen), human Aβ38 (MyBioSource) (in N2A-APPswe cells) or Wako High Sensitive Aβx-42 ELISA kit (in Rat primary cortical neuron culture). The viability of the N2A-APPswe and Primary cortical neurons were determined by MTT and LDH release assays, respectively. No significant effect of viability of the neuron […]
β-Secretase assays: Confluent N2A-APPswe cells were harvested and homogenized with 50 mM MES, pH5.5. […] The β-secretase activities were assayed by adding 10 µM fluorogenic β-secretase substrate (Millipore) to the reaction mixtures and the fluorescence (excitation, 380; emission, 460) were measured. β-Secretase assays were also performed using purified BACE1 (Millipore) at 100 ng in a buffer containing 50 mM MES, pH 5.5. […]

C[C@H](NC(=O)Cc1cc(F)cc(F)c1)C(=O)N[C@H](C(=O)OC(C)(C)C)c1ccccc1 [DAPT]
production of NICD: completely blocked
